Measured values reported in US20210317092A1 (BAYER PHARMA AKTIENGESELLSCHAFT, priority 2016, published 2021).

Experiments:
[1] = cited from earlier work
[2] = cited from earlier work; remark: listed apart in the source
[3] = cited from earlier work; remark: listed apart in the source
IL-6 secretion = test: Inhibitory activity on Bradykinin B1 agonist-induced secretion of IL-6 in human IMR-90 cells; assay type: cell-based; settings: 30 min compound, stimulated with 0.1 μM Lys-[Des-Arg9]Bradykinin and 0.1 μM Sar-[D-Phe8]-des-Arg9-Bradykinin for 5 hours
Source text: (§1) Inhibitory activity on Bradykinin B1 agonist-induced secretion of IL-6 and IL-8 in human IMR-90 cells
(§2) The effect of the compound examples on secretion of the cytokine IL-6 and IL-8 has been investigated in the human foetal lung fibroblast IMR-90 cell line. Here the induction of the cytokine secretion was induced by the Bradykinin B1 agonists Lys-[Des-Arg9]Bradykinin (CAS 71800-36-7, Tocris Bioscience) and Sar-[D-Phe8]-des-Arg9-Bradykinin (CAS 126959-88-4, Tocris Bioscience) leading to the activation of the Bradykinin B1-driven signalling pathway. This effect is indicative for a strong anti-inflammatory mode of action in kinin driven inflammation.
(§3) IMR-90 cells were cultured in Eagle's Minimum Essential Medium (EMEM) containing 2 mM L-glutamine, 1 g/L glucose, 1.5 g/L NaHCO3, 1 mM sodium pyruvate and non-essential amino acids (ATCC, 30-2003™) supplemented with 10% FBS (Biochrom, S0615) and 50 U/mL Penicillin, 50 μg/mL Streptomycin (PAA, P11-010). The assay was performed in EMEM and a cell density of […] IMR-90 cells/96-well. The compound examples have been serial diluted in 100% DMSO and evaluated at 8 different concentrations within the range of 3 nM and 10 μM and a final DMSO concentration of 0.4%. The IMR-90 cells have been incubated with the respective concentration of the compound for 30 min. The enhanced secretion of IL-6 and IL-8 was induced by the stimulation of these cells with 0.1 μM Lys-[Des-Arg9]Bradykinin (Tocris, catalogue no. 3225) and 0.1 μM Sar-[D-Phe8]-des-Arg9-Bradykinin (Tocris, catalogue no. 3230) for 5 hours at 37° C. and 5% C02. Further, cells have been treated with Lys-[Des-Arg9]Bradykinin and Sar-[D-Phe8]-des-Arg9-Bradykinin as neutral control and with 0.1% DMSO as inhibitor control. The amount of IL-6 and IL-8 in the supernatant was determined using the Human Prolnflammatory Panel II (4-Plex) (MSD, K15025B) according to manufacturer's instruction. Briefly, supernatants were added onto assay plates and incubated at room temperature for 1-2 h with vigorous shaking at 600 rpm. Detection antibodies were then added onto the supernatants and incubated at room temperature for an additional 1-2 h with vigorous shaking at 600 rpm. Plates were washed three times with phosphate-buffered saline (PBS; 137 mM NaCl, 2.7 mM KCl, 6.5 mM Na2HPO4, 1.7 mM KH2P04) containing 0.05% Tween-20 (Bio-Rad, 161-0781) and electrochemiluminescence detected using the MSD Sector Imager 6000 plate reader. The cell viability was measured using the CellTiter-Glo Luminescent Assay (Promega, G7571) following the manufacturers protocol. Briefly, the CellTiter-Glo Reagent was diluted with PBS (1:1) and added directly to cells. After incubation and shaking for 10 minutes luminescent signal was measured which is proportional to the amount of ATP present.
(§4) The effect of the compound on the amount of secreted cytokine has been calculated as 100/(measured cytokine concentration of neutral control-measured cytokine concentration of inhibitor control)*(measured cytokine concentration of compound dose-measured cytokine concentration of inhibitor control). IC50 values are determined using 4-parameter-fit.
(§5) The compound examples were tested in triplicates per plate and the inhibitory activity was determined as the relation between neutral and inhibitor control in percent. IC50 values were calculated using the 4-parameter logistic model.

[4] = molecular target: T1, human Bradykinin B1 receptor (Homo sapiens, UniProt P46663); test: Calcium flux Assay (FLIPR) with recombinant CHO-K1 cells expressing human Bradykinin B1 receptor, in presence (hB1 IC50) or absence (hB1 free IC50) of 0.1% BSA; assay type: cell-based; settings: in absence of 0.1% BSA, read-out: hB1 free IC50
T1 construct: host or cells: CHO-K1
T1 sequence (P46663 1-353): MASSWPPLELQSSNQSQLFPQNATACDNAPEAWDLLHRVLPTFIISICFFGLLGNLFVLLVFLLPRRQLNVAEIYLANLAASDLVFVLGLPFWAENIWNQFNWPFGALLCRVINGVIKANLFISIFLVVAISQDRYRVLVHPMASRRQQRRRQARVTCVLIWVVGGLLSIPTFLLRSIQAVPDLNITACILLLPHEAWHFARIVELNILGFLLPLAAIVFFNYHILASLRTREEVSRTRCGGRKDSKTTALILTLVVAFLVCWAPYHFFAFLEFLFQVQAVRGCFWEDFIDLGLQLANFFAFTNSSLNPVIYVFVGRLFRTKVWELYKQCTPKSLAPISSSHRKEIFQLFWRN

IL-8 secretion = test: Inhibitory activity on Bradykinin B1 agonist-induced secretion of IL-8 in human IMR-90 cells; assay type: cell-based; settings: 30 min compound, stimulated with 0.1 μM Lys-[Des-Arg9]Bradykinin and 0.1 μM Sar-[D-Phe8]-des-Arg9-Bradykinin for 5 hours
Source text: as §1, §2, §3, §4, §5

[5] = due to metabolic tability; cited from earlier work

IC50 (IL-6 secretion) [nM]	IC50 [4] [nM]	IC50 (IL-8 secretion) [nM]	Compound	pharmacokinetic profile in rat [1]	human metabolic stability [2]	aqueous solubility [3]	pharmacokinetic profile [5]
–	–	–	C[C@@H]1CC[C@H](C)N1C(=O)c1ccc([C@@H](C)NC(=O)C2(NC(=O)c3cc(F)cc(C(F)(F)F)c3)CC2)c(F)c1	reasonable	poor	reasonable	–
> 10000	30.8	345	CC(C)(C)c1ccn(-c2ccc(NC(=O)C3(c4ccc(C(F)(F)F)cc4F)CC3)cc2-c2nnn[nH]2)n1 [Example 380, N-[4-(3-tert-Butyl-1H-pyrazol-1-yl)-3-(1H-tetrazol-5-yl)phenyl]-1-[2-fluoro-4-(trifluoromethyl)phenyl]cyclopro-panecarboxamide]	–	–	–	–
253	11	258	O=C(Nc1ccc(-n2ccc(CC(F)(F)F)n2)c(-c2nnn[nH]2)c1)C1(c2ccc(C(F)(F)F)cc2F)CC1 [Example 389, 1-[2-fluoro-4-(trifluoromethyl)phenyl]-N-{3-(1H-tetrazol-5-yl)-4-[3-(2,2,2-trifluoroethyl)-1H-pyrazol-1-yl]phenyl}cyclo-propanecarboxa-mide]	–	–	–	–
69	6.36	59	CC(C)(C)c1cn(-c2ccc(NC(=O)C3(c4ccc(OC(F)(F)F)cc4F)CC3)cc2-c2nnn[nH]2)cn1 [Example 404, N-[4-(4-tert-butyl-1H-imidazol-1-yl)-3-(1H-tetrazol-5-yl)phenyl]-1-[2-fluoro-4-(trifluoromethoxy)phenyl]cyclo-propanecarboxa-mide]	–	–	–	–
–	–	–	C[C@@H](NC(=O)C1(NC(=O)C(F)(F)F)CC1)c1ccc(-c2cccc(Cl)c2C(=O)O)cc1F [MK-0686]	–	–	–	suboptimal
